{"source": "patent US6593369B2", "about": "“Methods, compositions, and kits for enhancing female sexual desire and responsiveness” (Vivus, Inc., priority 1997, dated 2003)", "key": {"clitoral artery": {"test_system": "clitoral artery", "test": "Measurement of clitoral blood flow by ultrasound (Doppler velocitometer)", "format": "in vivo, human", "settings": "Patient No. 1; for Change in Clitoral Blood Flow: peak systolic flow vs baseline; for Change in Clitoral Blood Flow, percent in brackets: vs baseline", "description": "1. Measurement of clitoral blood flow by ultrasound:\nClitoral blood flow was estimated by utilizing the Knoll-Midas ultrasonic Doppler velocitometer (Urometrics, Inc.). The ultrasound probe was manually positioned over the middle of the clitoral body as it courses superficially through the perineum between the external vaginal opening and the end of the clitoris (glans clitoris). […] This method is analogous to that used in measuring the cavernosal artery velocity in the penis. The clitoral artery was easily visualized. Measurements were made at baseline and at various time intervals following the application of a drug to the clitoris. Peak systolic blood flow at baseline was compared to peak systolic blood flow following drug administration as a method of comparing relative efficacy in inducing clitoral artery vasodilatation in a manner analogous to studies of such drugs in men.\n(§1) 1. Solutions of prostaglandin E-1 and E-2 were prepared by dissolving weighed amounts of the prostaglandin in triacetin to produce a concentrated stock solution. Serial dilutions of this stock solution were made by a micropipette. Since triacetin can partially hydrolyze on standing to produce traces of acetic acid, the triacetin was treated with a small amount of a concentration potassium bicarbonate solution to remove any acetic acid, then dried with magnesium sulfate and filtered to give a triacetin free of acid or water. Solutions were used the same day that they were made. Concentrations of prostaglandin varied from 2.0-1,000 micrograms per milliliter of triacetin. Following equilibration of clitoral temperature, a dose of triacetin was applied to the clitoris prior to active drug solutions to determine the effect of the carrier on the clitoris.\n(§2) Solutions were applied directly to the clitoris by means of a calibrated micropipette (Justor 1100DG, Sigma; St. Louis, Mo.)."}, "Solubility in water": {"test": "Solubility in water", "format": "physicochemical", "quoted_text": "5 mg of PGE-2 is added to sterile cold water (10 ml, 1 mM in sodium citrate), stirred until dissolved and the pH adjusted with either NaOH or HCl, to a pH of about 5.4."}, "clitoris [1]": {"test_system": "clitoris", "test": "Measurement of clitoral skin temperature after topical application to the clitoris", "format": "in vivo, human", "description": "2. Measurement of clitoral skin temperature:\nA highly sensitive thermocouple capable of determining changes in skin temperature of 0.002 degrees Fahrenheit was connected to a computer-based recording device (F1000 by Focused Technology, Inc.) and used to measure changes in clitoral skin temperature. The patient changed from their clothes into a gown and was placed in a semi-reclining position in a comfortable recliner. Room temperature was controlled at 76 degrees F. (±1) and no air drafts were present. The thermocouple was coated with a small amount of lubricating jelly and placed in a labial skin fold adjacent to the clitoris. A period of equilibration (˜15 minutes) allowed the measured temperature to stabilize. Next, precise doses of various pharmaceuticals were applied as solutions directly to the clitoris by a calibrated micropipette (Justor 1100DG, Sigma; St. Louis, Mo.). Typical volumes used were 20-50 microliters. Clitoral temperatures were continually measured and printed for analysis. Increases in skin temperature directly correlate with changes in cutaneous blood flow. See Birnbaum (U.S. Pat. No. 4,311,707) for an example of using this method to compare the relative vasodilatory potency of topical prostaglandins. Changes in skin temperature are reported as maximum recorded temperature in an interval minus the temperature at the end of the equilibration period. The magnitudes of these recorded temperature changes may be used as a measurement of the change in clitoral blood flow.\nas §1\n(§3) 2. R-alphamethylhistamine hydrochloride is not soluble in triacetin but is soluble in saline. Normal saline +2 millimolar potassium phosphate at pH 7.4 was used to prepare solutions of R-alphamethylhistamine hydrochloride with concentrations from 2.5-100 micrograms per milliliter of saline.\nas §2"}, "clitoris [2]": {"test_system": "clitoris", "test": "Patient subjective reports of sexual arousal and symptoms after application to the clitoris", "format": "in vivo, human", "protocol": "3. Patient Subjective Reports:\nPatient reports of symptoms and effects of agents on sexual arousal measures (such as warmth and tingling, vaginal lubrication and excitation) were recorded. Blood pressure and pulse were also recorded. Different drugs were given on different days. Some series of drug titrations were recorded on several days.\nas §1, §3, §2"}, "[3]": {"settings": "Patient No. 1, 0.400 mcg in triacetin on clitoris"}, "[4]": {"settings": "Patient No. 1, 1.000 mcg in triacetin on clitoris"}, "[5]": {"settings": "Patient No. 1, 20.0 mcg in triacetin on clitoris"}, "[6]": {"settings": "Patient No. 1, 50.0 mcg in triacetin on clitoris"}, "[7]": {"settings": "Patient No. 1, 200.0 mcg in triacetin on clitoris"}, "[8]": {"settings": "Patient No. 2, 1.000 mcg in triacetin on clitoris"}, "[9]": {"settings": "Patient No. 2, 10.0 mcg in triacetin on clitoris"}, "[10]": {"settings": "Patient No. 2, 100.0 mcg in triacetin on clitoris"}, "[11]": {"settings": "Patient No. 1, 1.0 mcg in saline on clitoris"}, "[12]": {"settings": "Patient No. 1, 10.0 mcg in saline on clitoris"}, "[13]": {"settings": "Patient No. 1, 100.0 mcg in saline on clitoris"}}, "data": [{"smiles": "CCCCC[C@H](O)/C=C/[C@H]1[C@H](O)CC(=O)[C@@H]1CCCCCCC(=O)O", "note": "[PGE-1, 3-hydroxy-2-(3-hydroxy-1-octenyl)-5-oxocyclopentaneheptanoic acid]", "values": [{"measurement": "Change in Clitoral Blood Flow", "setting": "clitoral artery; 20.0 mcg in triacetin", "result": 4, "unit": "cm/s"}, {"measurement": "Change in Clitoral Blood Flow, percent in brackets", "setting": "clitoral artery; 20.0 mcg in triacetin", "result": "+46%"}, {"measurement": "Change in Clitoral Blood Flow", "setting": "clitoral artery; 50.0 mcg in triacetin", "result": 3.5, "unit": "cm/s"}, {"measurement": "Change in Clitoral Blood Flow, percent in brackets", "setting": "clitoral artery; 50.0 mcg in triacetin", "result": "+32%"}, {"measurement": "Change in Clitoral Blood Flow", "setting": "clitoral artery; 100.0 mcg in triacetin", "result": 6.5, "unit": "cm/s"}, {"measurement": "Change in Clitoral Blood Flow, percent in brackets", "setting": "clitoral artery; 100.0 mcg in triacetin", "result": "+33%"}, {"measurement": "Change in Clitoral Blood Flow", "setting": "clitoral artery; 200.0 mcg in triacetin", "result": 11, "unit": "cm/s"}, {"measurement": "Change in Clitoral Blood Flow, percent in brackets", "setting": "clitoral artery; 200.0 mcg in triacetin", "result": "+80%"}, {"measurement": "solubility", "setting": "Solubility in water", "result": 80, "unit": "µg/mL"}, {"measurement": "Temperature Change", "setting": "clitoris [1]; [3]", "result": "−0.6", "unit": "° F."}, {"measurement": "Temperature Change", "setting": "clitoris [1]; [4]", "result": 0.3, "unit": "° F."}, {"measurement": "Temperature Change", "setting": "clitoris [1]; [5]", "result": 0.3, "unit": "° F."}, {"measurement": "Temperature Change", "setting": "clitoris [1]; [6]", "result": 0.1, "unit": "° F."}, {"measurement": "Temperature Change", "setting": "clitoris [1]; Patient No. 1, 100.0 mcg in triacetin on clitoris", "result": 2.7, "unit": "° F."}, {"measurement": "Temperature Change", "setting": "clitoris [1]; [7]", "result": 0.4, "unit": "° F."}, {"measurement": "Clitoral temperature effect (conclusion)", "setting": "clitoris [1]; Patient No. 2", "result": "did not have a temperature increase"}, {"measurement": "Temperature Change", "setting": "clitoris [1]; [8]", "result": "−0.35", "unit": "° F."}, {"measurement": "Temperature Change", "setting": "clitoris [1]; [9]", "result": "−0.10", "unit": "° F."}, {"measurement": "Temperature Change", "setting": "clitoris [1]; [10]", "result": "−0.10", "unit": "° F."}, {"measurement": "Doses giving pleasurable feelings", "setting": "clitoris [2]; Patient No. 1", "result": "≥ 20", "unit": "µg"}, {"measurement": "Doses with adverse effects", "setting": "clitoris [2]; Patient No. 1", "result": "adverse effects at all doses"}, {"measurement": "Subjective Response", "setting": "clitoris [2]; [3]", "result": "Felt cold."}, {"measurement": "Subjective Response", "setting": "clitoris [2]; [4]", "result": "Clitoral burning; 6/10;"}, {"measurement": "Subjective Response", "setting": "clitoris [2]; [5]", "result": "Clitoral burning; 4/10."}, {"measurement": "Subjective Response", "setting": "clitoris [2]; [6]", "result": "Exciting. Jaw pain."}, {"measurement": "Subjective Response", "setting": "clitoris [2]; [7]", "result": "Diffuse pain, flushing,"}, {"measurement": "Overall effects", "setting": "clitoris [2]; Patient No. 2", "result": "neither positive nor negative effects"}, {"measurement": "Subjective Response", "setting": "clitoris [2]; [8]", "result": "Felt drop go on. No"}, {"measurement": "Subjective Response", "setting": "clitoris [2]; [9]", "result": "Felt drop go on. No"}, {"measurement": "Subjective Response", "setting": "clitoris [2]; [10]", "result": "Felt nothing."}]}, {"smiles": "C[C@@H](N)Cc1c[nH]cn1.Cl", "note": "[R-alphamethylhistamine, R-alphamethylhistamine hydrochloride]", "values": [{"measurement": "Overall effect on temperature and sexual excitement", "setting": "clitoris [1]; Patient No. 1", "result": "decreased temperature and decreased sexual excitement"}, {"measurement": "Temperature Change", "setting": "clitoris [1]; [11]", "result": "−0.1", "unit": "° F."}, {"measurement": "Temperature Change", "setting": "clitoris [1]; [12]", "result": "−0.5", "unit": "° F."}, {"measurement": "Temperature Change", "setting": "clitoris [1]; [13]", "result": 0.1, "unit": "° F."}, {"measurement": "Subjective Response", "setting": "clitoris [2]; [11]", "result": "None."}, {"measurement": "Subjective Response", "setting": "clitoris [2]; [12]", "result": "Numb feeling in clitoris."}, {"measurement": "Subjective Response", "setting": "clitoris [2]; [13]", "result": "Clitoral burning; 2/10;"}]}]}
